According to patent US8338565B2, “Macrocyclic compounds for inhibition of tumor necrosis factor alpha” (Ensemble Therapeutics Corporation, priority 2008, dated 2012):
Like-named read-outs stand apart in the source and are kept apart here. Numbered stars: 1 amine (or outer) side, 2 acyl side, 3 side chain; on linkers, the order of the positions; unused ones are H or OH. Bridge positions count the residues as written; N and C are the ends. Square brackets hold non-standard residues; d marks the D form. Peptide text beside a SMILES is read from it. Tartaroyl(2R,3R-(OAc)2) = CC(=O)O[C@@H](C(=O)[*:1])[C@@H](OC(C)=O)C(=O)[*:2]; Phe(4-CF3) = N[C@@H](Cc1ccc(C(F)(F)F)cc1)C(=O)O; Phe(4-COOH) = N[C@@H](Cc1ccc(C(=O)O)cc1)C(=O)O; dPhe(2-CF3) = N[C@H](Cc1ccccc1C(F)(F)F)C(=O)O; Bip = N[C@@H](Cc1ccc(-c2ccccc2)cc1)C(=O)O; dBip = N[C@H](Cc1ccc(-c2ccccc2)cc1)C(=O)O; dPhe(4-NH2) = Nc1ccc(C[C@@H](N)C(=O)O)cc1; Phe(4-Br) = N[C@@H](Cc1ccc(Br)cc1)C(=O)O; dPhe(3-Cl) = N[C@H](Cc1cccc(Cl)c1)C(=O)O; Phe(4-NH2) = Nc1ccc(C[C@H](N)C(=O)O)cc1; Ala(2-furyl) = N[C@@H](Cc1ccco1)C(=O)O; dIgl = N[C@@H](C(=O)O)C1Cc2ccccc2C1; d(hPhe) = N[C@H](CCc1ccccc1)C(=O)O; hPhe = N[C@@H](CCc1ccccc1)C(=O)O; d4Pal = N[C@H](Cc1ccncc1)C(=O)O; d2Thi = N[C@H](Cc1cccs1)C(=O)O; Suc = O=C(CCC(=O)[*:2])[*:1]; Ac3c = NC1(C(=O)O)CC1; βAla = NCCC(=O)O

Molecular target: T1, TNFα / TNFα receptor (TNFα R1/Fc) (Homo sapiens, UniProt P01375)
T1 construct: purchased R&D Systems
Assay: Inhibition of binding of TNFα to the TNFα receptor (plate ELISA competition)
Conditions: Table 2
In short: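 Plates were coated with TNFα at 15 nM. Test compound and 8.33 nM receptor-Fc (PBST, 2% DMSO) were first mixed in solution for 30 min at room temperature, then transferred to the plates for another 30 min. Competition was read by absorbance at 450 nm after HRP anti-human IgG Fc detection with TMB.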

[1] = read-out: Activity (IC50, inhibition of TNFα binding to TNFα R1/Fc)

T1 sequence (P01375 77-233 limits assumed, species assumed): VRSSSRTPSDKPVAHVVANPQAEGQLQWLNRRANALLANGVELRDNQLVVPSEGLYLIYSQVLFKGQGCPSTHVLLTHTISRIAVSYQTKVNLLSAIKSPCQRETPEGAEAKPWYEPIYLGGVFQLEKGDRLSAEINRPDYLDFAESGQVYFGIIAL

IC50 [1] [µM]	SMILES	IC50 (Activity (IC50, inhibition of TNFα binding to TNFα R1/Fc)) [µM]
30 to 100	O=C1CCC(=O)N[C@H](Cc2cccs2)C(=O)N[C@@H](Cc2ccc(-c3ccccc3)cc2)C(=O)N[C@H](CCc2ccccc2)C(=O)N[C@H](C(=O)NC2(C(=O)O)CC2)Cc2ccc(cc2)N1 [Compound 451] ([d2Thi][Bip][d(hPhe)][Phe(4-NH2)][Ac3c]-OH; linker N-4 via Suc)	–
< 10	O=C1CCNC(=O)c2ccc(cc2)C[C@@H](C(=O)O)NC(=O)[C@H](Cc2ccccc2)NC(=O)[C@@H](Cc2ccc(-c3ccccc3)cc2)NC(=O)[C@H](CCc2ccccc2)N1 [Compound 465] ([βAla][hPhe][dBip]F[Phe(4-COOH)]-OH; lactam N-5)	–
> 100	CN(C)C(=O)[C@@H]1Cc2ccc(cc2)NC(=O)CCC(=O)N[C@H](CCc2ccccc2)C(=O)N[C@@H](Cc2ccc(-c3ccccc3)cc2)C(=O)N[C@H](Cc2ccccc2)C(=O)N1 [Compound 370] ([d(hPhe)][Bip][dF][Phe(4-NH2)]-NMe2; linker N-4 via Suc)	–
10 to 30	O=C1CCC(=O)N[C@H](CCc2ccccc2)C(=O)N[C@@H](Cc2ccc(Br)cc2)C(=O)N[C@H](Cc2ccccc2)C(=O)N[C@@H](C(=O)N[C@@H](Cc2ccccc2)C(=O)O)Cc2ccc(cc2)N1 [Compound 440] ([d(hPhe)][Phe(4-Br)][dF][dPhe(4-NH2)]F-OH; linker N-4 via Suc)	–
–	O=C1COc2ccc(cc2)C[C@@H](C(=O)N[C@@H](Cc2ccccc2)C(=O)O)NC(=O)[C@H](CCc2ccccc2)NC(=O)[C@@H](Cc2ccc(-c3ccccc3)cc2)NC(=O)[C@H](Cc2cccs2)N1 [Compound 481]	< 10
30 to 100	O=C1CCC(=O)N[C@H](Cc2cccc(Cl)c2)C(=O)N[C@@H](Cc2ccc(C(F)(F)F)cc2)C(=O)N[C@H](Cc2ccccc2)C(=O)N[C@H](C(=O)O)Cc2ccc(cc2)N1 [Compound 133] ([dPhe(3-Cl)][Phe(4-CF3)][dF][Phe(4-NH2)]-OH; linker N-4 via Suc)	–
< 10	O=C1COc2ccc(cc2)C[C@@H](C(=O)O)NC(=O)[C@H](Cc2ccccc2)NC(=O)[C@@H](Cc2ccc(-c3ccccc3)cc2)NC(=O)[C@H](Cc2cccs2)N1 [Compound 214]	–
10 to 30	O=C(Nc1ccc(-c2ccc(C[C@@H]3NC(=O)[C@@H](Cc4cccs4)NC(=O)[C@H](O)[C@@H](O)C(=O)Nc4ccc(cc4)C[C@@H](C(=O)O)NC(=O)[C@@H](Cc4ccccc4)NC3=O)cc2)cc1)OCc1ccccc1 [Compound 336]	–
10 to 30	CC(=O)N[C@@H]1CC(=O)Nc2ccc(cc2)C[C@@H](C(=O)O)NC(=O)[C@@H](Cc2ccccc2)NC(=O)[C@H](Cc2ccc(-c3ccccc3)cc2)NC(=O)[C@@H](Cc2cccs2)NC1=O [Compound 376] (Ac-[dD][d2Thi][Bip][dF][Phe(4-NH2)]-OH; lactam 1-5)	–
< 10	O=C1N[C@H](CCc2ccccc2)C(=O)N[C@@H](C(=O)O)Cc2ccc(cc2)NC(=O)[C@H](O)[C@@H](O)C(=O)N[C@H](Cc2cccs2)C(=O)N[C@H]1Cc1ccc(Br)cc1 [Compound 238]	–
< 10	O=C1COc2ccc(cc2)C[C@@H](C(=O)O)NC(=O)[C@@H](Cc2ccncc2)NC(=O)[C@H](Cc2ccc(-c3ccccc3)cc2)NC(=O)[C@@H](Cc2cccs2)N1 [Compound 536]	–
> 100	O=C(O)CNC(=O)[C@@H]1Cc2ccc(cc2)NC(=O)CCC(=O)N[C@H](Cc2cccs2)C(=O)N[C@@H](Cc2ccc(-c3ccccc3)cc2)C(=O)N[C@H](CCc2ccccc2)C(=O)N1 [Compound 453] ([d2Thi][Bip][d(hPhe)][Phe(4-NH2)]G-OH; linker N-4 via Suc)	–
< 10	O=C1CCC(=O)N[C@H](CCc2ccccc2)C(=O)N[C@@H](Cc2ccc(-c3ccccc3)cc2)C(=O)N[C@H](Cc2ccccc2)C(=O)N[C@H](C(=O)O)Cc2ccc(cn2)N1 [Compound 546]	–
> 100	O=C1CCC(=O)N[C@H](Cc2ccncc2)C(=O)N[C@@H](Cc2ccc(-c3ccccc3)cc2)C(=O)N[C@H](Cc2ccccc2)C(=O)N[C@H](C(=O)O)Cc2ccc(cc2)N1 [Compound 127] ([d4Pal][Bip][dF][Phe(4-NH2)]-OH; linker N-4 via Suc)	–
> 100	O=C1CCC(=O)N[C@H](CCc2ccccc2)C(=O)N[C@@H](Cc2ccc(C(F)(F)F)cc2)C(=O)N[C@@H](Cc2ccco2)C(=O)N[C@H](C(=O)O)Cc2ccc(cc2)N1 [Compound 224] ([d(hPhe)][Phe(4-CF3)][Ala(2-furyl)][Phe(4-NH2)]-OH; linker N-4 via Suc)	–
> 100	O=C1CCC(=O)N[C@H](C2Cc3ccccc3C2)C(=O)N[C@@H](Cc2ccc(C(F)(F)F)cc2)C(=O)N[C@H](Cc2ccccc2)C(=O)N[C@H](C(=O)O)Cc2ccc(cc2)N1 [Compound 165] ([dIgl][Phe(4-CF3)][dF][Phe(4-NH2)]-OH; linker N-4 via Suc)	–
10 to 30	O=C1COc2ccc(cc2)C[C@@H](C(=O)N[C@@H](Cc2ccccc2)C(=O)O)NC(=O)[C@H](Cc2ccccc2)NC(=O)[C@@H](Cc2ccc(-c3ccccc3)cc2)NC(=O)[C@H](Cc2cccs2)N1 [Compound 230]	–
> 100	O=C(O)CC[C@@H]1NC(=O)[C@H](Cc2ccc(-c3ccccc3)cc2)NC(=O)[C@@H](Cc2cccs2)NC(=O)CCC(=O)Nc2ccc(cc2)C[C@@H](C(=O)O)NC1=O [Compound 68] ([d2Thi][Bip]E[Phe(4-NH2)]-OH; linker N-4 via Suc)	–
> 100	O=C1COc2ccc(cc2)C[C@@H](C(=O)O)NC(=O)[C@H](Cc2ccccc2)NC(=O)[C@H](Cc2ccc(-c3ccc(C(=O)O)cc3)cc2)NC(=O)[C@H](Cc2cccs2)N1 [Compound 361]	–
10 to 30	CS(=O)(=O)NC(=O)[C@@H]1Cc2ccc(cc2)OCC(=O)N[C@@H](Cc2ccncc2)C(=O)N[C@H](Cc2ccc(-c3ccccc3)cc2)C(=O)N[C@@H](CCc2ccccc2)C(=O)N1 [Compound 600]	–
10 to 30	O=C1CCC(=O)N[C@H](Cc2cccs2)C(=O)N[C@@H](Cc2ccc(-c3ccccc3)cc2)C(=O)N[C@H](Cc2ccccc2)C(=O)N[C@H](C(=O)O)Cc2ccc(cn2)N1 [Compound 545]	–
< 10	O=C1COc2ccc(cc2)C[C@@H](C(=O)O)NC(=O)[C@H](CCc2ccccc2)NC(=O)[C@@H](Cc2ccc(-c3ccccc3)cc2)NC(=O)[C@H](Cc2ccc3ccccc3c2)N1 [Compound 695]	–
> 100	O=C(O)[C@@H]1Cc2ccc(cc2)NC(=O)[C@H](O)[C@@H](O)C(=O)N[C@@H](Cc2cccs2)C(=O)N[C@@H](Cc2ccc(-c3ccccc3)cc2)C(=O)N[C@H](Cc2ccccc2)C(=O)N1 [Compound 270]	–
< 10	O=C1COc2ccc(cc2)C[C@@H](C(=O)O)NC(=O)[C@H](Cc2ccc(-c3cccnc3)cc2)NC(=O)[C@@H](Cc2ccc(-c3ccccc3)cc2)NC(=O)[C@H](Cc2cccs2)N1 [Compound 633]	–
30 to 100	O=C1CCC(=O)N[C@H](Cc2cccs2)C(=O)N[C@@H](Cc2ccc(-c3ccccc3)cc2)C(=O)N[C@H](Cc2ccccc2C(F)(F)F)C(=O)N[C@H](C(=O)O)Cc2ccc(cc2)N1 [Compound 77] ([d2Thi][Bip][dPhe(2-CF3)][Phe(4-NH2)]-OH; linker N-4 via Suc)	–
30 to 100	CC(=O)O[C@H]1C(=O)Nc2ccc(cc2)C[C@@H](C(=O)O)NC(=O)[C@@H](Cc2ccccc2)NC(=O)[C@H](Cc2ccc(-c3ccccc3)cc2)NC(=O)[C@@H](Cc2cccs2)NC(=O)[C@@H]1OC(C)=O [Compound 223] ([d2Thi][Bip][dF][Phe(4-NH2)]-OH; linker N-4 via Tartaroyl(2R,3R-(OAc)2))	–
